Experimental data published in patent US10512656B2, “Compositions and methods for the treatment of lysosomal storage disorders and disorders characterized by lysosomal dysfunction” (Baylor College of Medicine, priority 2016, dated 2019).

Legend:
[1] = test system: Cln3^Δex7-8 mice; assay: Hot plate test (pain sensitivity); type: in vivo, mouse; settings: six-month-old Cln3^Δex7-8 mice, 50° C. surface
Text: FIG. 1. Amelioration of disease pathology in JNCL mice fed with trehalose. […] Treated (Tre) Cln3^Δex7-8 mice: n=13. Untreated (UT) Cln3^4ex7-8 mice: n=12. (b) Weight of brains from 12-month-old WT and Cln3^Δex7-8 mice with or without trehalose treatment. All groups of mice, n=4 or 5. (c) Fractional anisotropy of brains from 12-month-old WT and Cln3^Δex7-8 mice with or without trehalose treatment. Left panel: representative coronal images of the four groups of brains; corpus callosa are indicated by the yellow arrowhead. Right panel: quantification of callosal volume. All groups of mice, n=3 or 4. Scale bar, […]. Three-dimensional reconstructions of the corpus callosum in mice from treated and control groups are reported in Supplementary Movies 1-4. (d) In the hot plate test, Cln3^Δex7-8 mice respond slower when placed on a 50° C. heated metal surface compared with wild-type (WT) littermates, indicating reduced pain sensitivity. Trehalose (Tre) treatment rescued this phenotype in Cln3^Δex7-8 mice. All groups of mice, n=14-19. Data represent means±s.e.m. *P<0.05, **P<0.01, ***P<0.001.

[2] = molecular target: T1, GSK3β (Homo sapiens, UniProt P49841); assay: GSK3β immunoblot in HeLa cells; type: cell-based; settings: trehalose 24 h
T1 construct: endogenous in cells; host or cells: HeLa
T1 sequence (P49841 whole entry): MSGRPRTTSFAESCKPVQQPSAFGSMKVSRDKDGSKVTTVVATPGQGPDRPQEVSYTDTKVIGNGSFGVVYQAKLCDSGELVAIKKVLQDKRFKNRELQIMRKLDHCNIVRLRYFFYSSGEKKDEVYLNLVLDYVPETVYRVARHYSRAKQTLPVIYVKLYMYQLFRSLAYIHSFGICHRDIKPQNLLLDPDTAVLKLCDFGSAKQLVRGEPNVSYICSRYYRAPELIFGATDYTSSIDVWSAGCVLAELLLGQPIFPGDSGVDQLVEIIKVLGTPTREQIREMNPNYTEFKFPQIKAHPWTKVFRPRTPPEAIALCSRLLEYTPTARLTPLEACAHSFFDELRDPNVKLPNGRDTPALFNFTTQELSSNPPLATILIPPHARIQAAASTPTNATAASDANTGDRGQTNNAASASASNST
Text: FIG. 16. […] GAPDH was used as a loading control. […] Images have been cropped for presentation.

[3] = molecular target: T2, mTORC1 (Homo sapiens, UniProt P42345); assay: Immunoblot of mTORC1 substrates in HeLa cells; type: cell-based; settings: trehalose 24 h or 48 h
T2 construct: endogenous in cells; host or cells: HeLa
Method: FIG. 8. […] HeLa cells were treated with trehalose for 24 h or 48 h, or with rapamycin (600 nM, 16 h) or Torin1 (300 nM, 2 h) as controls for mTORC1 inhibition. […] GAPDH was used as a loading control.
Brain tissue and cultured cells were collected and lysed in RIPA buffer (50 mM Tris-HCl, ph 7.4, 1% NP40, 0.5% Na-deoxycholate, 0.1% SDS, 150 mM NaCl, 2 mM EDTA and 50 mM NaF) including a cocktail of protease (Roche) and phosphatase (SIGMA) inhibitors. Protein concentrations were measured with the bicinchoninic acid protein assay kit (Pierce, Rockford, Ill.), using bovine serum albumin as standard. Lysates were separated via SDS-polyacrylamide gel electrophoresis (PAGE) and then transferred to nitrocellulose membranes. Blots were incubated in blocking buffer (5%, w/v, dried skimmed milk in Tris-buffered saline, pH 7.4 and 0.2% Tween 20, TBST) followed by overnight incubation with appropriate antibodies diluted in blocking buffer (5% dry milk). Western blot images were acquired by LAS 4000 (GE Healthcare) and quantified using ImageJ. Images have been cropped for presentation.

[4] = test system: Akt; assay: Akt activity in HeLa cells, time course immunoblot; type: cell-based, human
Method: FIG. 14. Akt phosphorylates TFEB at Ser467. […] Dashed boxes (upper row) show the location of the higher power inserts (lower row). (b) Subcellular fractionation of HeLa/TFEB cells incubated with the same kinase inhibitors. (c) Multi-alignment of TFEB amino-acid sequences from the following species: Ac, Anolis carolensis; Bt, Bos taurus; Dr, Danio rerio; Fc, Felix catus; Gg, gallus gallus; Hs, Homo sapiens; La, Loxodonta africana; Mm, Mus musculus; Rn, Rattus Norvegicus; Sh, Sarcophilus harrisii; Sp, Strongylocentrotus purpuratus; XI, Xenopus laevis. A consensus logo of Akt phosphorylation sites (generated at weblogo.berkeley.edu/logo.cgi) is aligned with TFEB sequences. Position 467 refers to the human protein sequence. (d) Subcellular localization of TFEB and TFEB(S467A). (e) Expression analysis of lysosomal and autophagy genes in HeLa cells transfected with TFEB or TFEB(S467A). […]
Brain tissue and cultured cells were collected and lysed in RIPA buffer (50 mM Tris-HCl, ph 7.4, 1% NP40, 0.5% Na-deoxycholate, 0.1% SDS, 150 mM NaCl, 2 mM EDTA and 50 mM NaF) including a cocktail of protease (Roche) and phosphatase (SIGMA) inhibitors. Protein concentrations were measured with the bicinchoninic acid protein assay kit (Pierce, Rockford, Ill.), using bovine serum albumin as standard. […] Western blot images were acquired by LAS 4000 (GE Healthcare) and quantified using ImageJ. […]

[5] = test system: lysosomal genes; assay: Microarray expression analysis (gene ontology, GSEA) of fibroblasts; type: cell-based, human
Method: Total RNA from control and JNCL fibroblasts with and without trehalose treatment (100 mM, 4 days) was used to prepare complementary DNA for hybridization to the Illumina Human HT-12 V4.0 array platform. Experiments were performed in triplicate. Expression analysis was performed at the Microarray Core and Cell and Regulatory Biology, University of Texas, Houston, Tex., USA. A […] was used as a threshold for significance for assessing differential gene expression. GSEA was performed as previously described^10,11. The cumulative distribution function was constructed by performing 1,000 random gene set membership assignments. A nominal P<0.01 and an FDR<10% were used as thresholds for significance of the ES. Gene ontology analysis was performed with the web tool DAVID (https://david.ncifcrf.gov/) using default parameters. Pathway co-expression analyses were performed as previously described^8,9, and Cytoscape was used to represent graphically the expression correlation data.

Structure (SMILES): OC[C@H]1O[C@H](O[C@H]2O[C@H](CO)[C@@H](O)[C@H](O)[C@H]2O)[C@H](O)[C@@H](O)[C@@H]1O [trehalose, a-D-glucopyranosyl a-D-glucopyranoside]
- pain sensitivity in hot plate assay [1]: fully restored
- GSK3β activity [2]: no detectable effect
- phosphorylation state of mTORC1 substrates [3]: no changes in their phosphorylation state
- Akt activity [4]: inhibited Akt activity
- GSEA enrichment score, TFEB direct targets with a known role in lysosomal metabolism ([5]; control fibroblasts, P<0.0001): 0.82
- GSEA enrichment score, lysosomal genes ([5]; control fibroblasts, P<0.0001): 0.67
- gene ontology fold enrichment of lysosomal metabolism genes ([5]; genes with at least twofold change, JNCL and control fibroblasts, trehalose 100 mM 4 days): > 5
